Data reported in paper PMC8819291, “Adaptively evolved human oral actinomyces‐sourced defensins show therapeutic potential” (EMBO Molecular Medicine, 2021).
Where a SMILES comes first, the peptide text is derived from it.

Legend:
[1] = test system: fresh erythrocytes from the female ICR mice; assay: Hemolysis assay; format: cell-based, Mus musculus; conditions: 25 μM
Method: Hemolytic activity of peptides against fresh erythrocytes from the female ICR mice (Mus musculus) (25 g, 6 weeks of age) was assayed according to the standard method (Zhu et al, [2012]). Peptides were diluted with 0.9% NaCl to the indicated concentration. The percentage of hemolysis is determined as (A pep–A blank)/(A tot–A blank) × 100, in which “A” represents absorbance measured at 570 nm. A blank and A pep were evaluated in the absence or presence of peptides. One hundred percent hemolysis (A tot) was obtained in the presence of 1% Triton X‐100.

[2] = Bioaffinity ESI-MS with UMP; format: binding, Staphylococcus aureus; conditions: 25 mM ammonium acetate (pH5.2)
Method: All components for interactions were dissolved in 25 mM ammonium acetate (pH5.2). Electrospray spectra were recorded with Waters SynaptG2‐Si mass spectrometer (Waters, Manchester, UK) and measurements were performed with positive ESI in resolution mode. Ions were scanned in a mass range of 500–2,000 m/z with the following conditions: the capillary voltage at 1,500 V; the cone voltage at 40 V; the source block temperature at 30°C. Spectra were recorded and processed by the software Masslynx4.1 (Waters, Manchester, UK).

MRSA P1374 = assay: Cytoplasmic accumulation of UMP; format: cell-based, Staphylococcus aureus; conditions: 20 × C L, 30 min; RP-HPLC, UV 260 nm
Method: To analyze the cytoplasmic nucleotide pool, we carried out the cytoplasmic UMP accumulation experiment according to the literature (Brötz et al, [1997]) with some modifications. MRSA P1374 cells were grown in 40‐ml broth medium at 37°C to an OD600 of 0.5. The culture was supplemented with 130 μg/ml chloramphenicol. […] After 30 min of incubation, UMP was extracted from the harvested cells by stirring them into boiling water. The suspension was then centrifuged (43,000 g, 60 min) at 4°C and the supernatant was lyophilized and dissolved in 400 μl of 50 mM ammonium acetate (pH 5.2) and adjusted to pH 2.0 with acetic acid. After acidification, the supernatant was fractionated by RP‐HPLC on Hypersil ODS (250 × 4.6 mm; Thermo Scientific) and UMP was eluted from the column with a linear gradient from 0 to 40% methanol in 50 mM NH4Ac (pH 5.2) within 40 min with a flow rate of 1 ml/min. UV absorbance was monitored at 260 nm. UMP was identified by ultraperformance liquid chromatography–high resolution mass spectrometry (UPLC‐HRMS) and MALDI‐TOF. Both methods yielded consistent results.

[3] = test system: BM cells (Bacillus megaterium); assay: Scanning electron microscope observation of cell deformation; format: cell-based; conditions: 10 × C L, 37°C, 90 min
Method: After centrifugation, bacterial pellets were fixed with 2.5% glutaraldehyde for 1 h, followed by washing three times with PBS buffer (pH 7.3). Dehydration was carried out with a series of graded ethanol solutions. Cells were then dried by BAL‐TEC CPD‐030 critical point dryer (Bal‐Tec AG, Balzers, Liechtenstein) before being mounted on carbon tape and sputtered with a gold coating (BAL‐TEC SCD005). Images were visualized in FEI QUANTA 450.

[4] = Circular dichroism spectroscopy with UMP; format: binding; conditions: 50 mM NH4OAc, room temperature
Method: The spectra were measured at room temperature from 300 to 200 nm by using a quartz cell of 1.0 mm thickness. Data were collected at 1‐nm intervals with a scan rate of 2 nm/s.

HL‐60 = assay: Cytotoxicity assay (CCK-8); format: cell-based, human; conditions: 72 h
Method: Cells were cultured at 37°C in 5% CO2: 95% air incubator in Minimum Essential Medium (MEM) supplemented with 10% (v/v) fetal bovine serum (FBS). Cells were seeded at a density of 7 × 10^3 cells per well in 96‐well plates and incubated for 24 h. Media were then replaced with 200 μl of media containing various concentrations of peptides. The cells were incubated for 72 h and cytotoxicity was assessed with CCK‐8 Kits (Dojindo Molecular Technologies, Tokyo, Japan). Absorbance was detected at 450 nm with the TECAN Infinite M200 microplate reader (Tecan, Durham, USA).

HL‐60 cells = assay: Peptide-induced MCP-1 release (ELISA); format: cell-based, human; conditions: 24 h
Method: (§1) A549 and HL‐60 cells were purchased from the Cell Resource Center of the Chinese Academy of Medical Sciences (Beijing, China). They were tested for mycoplasma contamination with the Mycoplasma Detection Kit (Solarbio, China) and only negative cultures were used in our experiments. The cells were cultured in complete Dulbecco’s Modified Eagle Medium (DMEM) supplemented with 10% fetal bovine serum (FBS), penicillin (100 units/ml), and streptomycin ([…]) at 37°C in 5% CO2. The culture medium was changed every 2 days. Cells were passaged every 4–5 days with 0.25% trypsin (Gibco, USA). For enzyme‐linked immunosorbent assay (ELISA) (Hara et al, [2008]), A549 or HL‐60 cells were seeded in six‐well plates at a density of 1 × 10^5 cells/well and were incubated at 37°C in 5% CO2 overnight. Medium was aspirated and replaced with fresh complete DMEM supplemented with 10% FBS or serum‐free medium, both containing different concentrations of polypeptides for 24 h. Then, the supernatants were harvested for quantification of the IL‐8 amount in A549 by the Human CXCL8/IL‐8 Quantikine ELISA Kit (R&D Systems Inc., Minneapolis, MN, USA) and the MCP‐1 amount in HL‐60 by the Human MCP‐1 ELISA Kit (Boster Biological Technology Co., Ltd, Wuhan, China) as per the manufactures’ instructions.

A549 cells = assay: Peptide-induced IL-8 release (ELISA); format: cell-based, human; conditions: 24 h
Method: as §1

SP D39 = assay: Mouse lung infection model
Method: To this end, ICR female mice (30 g each mouse; 9–10 weeks of age) were anesthetized with 1.25% 2,2,2‐Tribromoethanol (Avertin) (Macklin, Shanghai, China) and hung by their front teeth on a steel wire. Then, they were inoculated intranasally with 10–20 µl bacterial suspension of SP D39 of fresh overnight culture (1.5 × 10^6 CFU per mouse) and then were removed from the wire to their cages. A control group of untreated mice was included. […] Mice were treated with penicillin as a positive control. At 48 h post‐infection, the mice were sacrificed and lungs removed and homogenized in 0.9% saline. Colony counts from lung homogenates were determined and the total number of colonies/lungs per mouse was calculated. Schematic representation is provided in Appendix Fig S16B.

[5] = test system: Streptococcus salivarius ATCC 1.2498; assay: Inhibition-zone-based synergy assay; format: cell-based; conditions: 0.05 nmol/well, without AMSIN
[6] = test system: Streptococcus sanguinis ATCC 1.2497; assay: Inhibition-zone-based synergy assay; format: cell-based; conditions: 0.05 nmol/well, without AMSIN
[7] = FBS-containing medium, 25 μg/mL, replicate 1
[8] = FBS-containing medium, 25 μg/mL, replicate 2
[9] = FBS-containing medium, 25 μg/mL, replicate 3
[10] = FBS-containing medium, 50 μg/mL, replicate 1
[11] = FBS-containing medium, 50 μg/mL, replicate 2
[12] = FBS-containing medium, 50 μg/mL, replicate 3
[13] = FBS-containing medium, 100 μg/mL, replicate 1
[14] = FBS-containing medium, 100 μg/mL, replicate 2
[15] = FBS-containing medium, 100 μg/mL, replicate 3
[16] = Serum-Free medium, 25 μg/mL, replicate 1
[17] = Serum-Free medium, 25 μg/mL, replicate 2
[18] = Serum-Free medium, 25 μg/mL, replicate 3
[19] = Serum-Free medium, 50 μg/mL, replicate 1
[20] = Serum-Free medium, 50 μg/mL, replicate 2
[21] = Serum-Free medium, 50 μg/mL, replicate 3
[22] = Serum-Free medium, 100 μg/mL, replicate 1
[23] = Serum-Free medium, 100 μg/mL, replicate 2
[24] = Serum-Free medium, 100 μg/mL, replicate 3

## CC[C@H](C)[C@H](NC(=O)[C@H](CCCCN)NC(=O)[C@@H](NC(=O)[C@H](C)NC(=O)[C@H](CC(C)C)NC(=O)[C@H](CCCCN)NC(=O)[C@H](Cc1ccccc1)NC(=O)[C@H](CC(C)C)NC(=O)[C@H](Cc1cnc[nH]1)NC(=O)CNC(=O)[C@H](Cc1ccccc1)NC(=O)[C@@H](N)Cc1ccccc1)[C@@H](C)O)C(=O)N[C@H](C(=O)N1CCC[C@H]1C(=O)N[C@@H](CO)C(=O)N[C@@H](CC(C)C)C(=O)N[C@@H](Cc1ccccc1)C(=O)N[C@@H](CCC(N)=O)C(=O)O)[C@@H](C)CC [Meucin-18, reference compound] (H-FFGHLFKLATKIIPSLFQ-OH)
[1]; technical replicate 1
  Hemolysis (%): 91.54%
[1]; technical replicate 2
  Hemolysis (%): 95.84%
[1]; technical replicate 3
  Hemolysis (%): 92.43%

## CN[C@H](CC(C)C)C(=O)N[C@H]1C(=O)N[C@@H](CC(N)=O)C(=O)N[C@H]2C(=O)N[C@H]3C(=O)N[C@H](C(=O)N[C@H](C(=O)O)c4cc(O)cc(O)c4-c4cc3ccc4O)[C@H](O)c3ccc(c(Cl)c3)Oc3cc2cc(c3O[C@@H]2O[C@H](CO)[C@@H](O)[C@H](O)[C@H]2O[C@H]2C[C@](C)(N)[C@H](O)[C@H](C)O2)Oc2ccc(cc2Cl)[C@H]1O [vancomycin, reference compound]
[2]
  Non-covalent complex with UMP by ESI-MS: complex formation
MRSA P1374
  Cytoplasmic accumulation of UMP: accumulated
[3]
  Cell shape by scanning electron microscopy: deformation of the cell shape
[4]
  Complex with UMP by CD absorption signatures: a complex was formed

## LL-37: the human AMP with immunomodulatory properties, chemically synthesized, positive control [reference compound]
HL‐60; 25 μg/mL, replicate 1
  Cellular variability of HL-60 (%): 95%
HL‐60; 25 μg/mL, replicate 2
  Cellular variability of HL-60 (%): 96%
HL‐60; 25 μg/mL, replicate 3
  Cellular variability of HL-60 (%): 103%
HL‐60; 50 μg/mL, replicate 1
  Cellular variability of HL-60 (%): 57%
HL‐60; 50 μg/mL, replicate 2
  Cellular variability of HL-60 (%): 56%
HL‐60; 50 μg/mL, replicate 3
  Cellular variability of HL-60 (%): 64%
HL‐60; 100 μg/mL, replicate 1
  Cellular variability of HL-60 (%): 25%
HL‐60; 100 μg/mL, replicate 2
  Cellular variability of HL-60 (%): 25%
HL‐60; 100 μg/mL, replicate 3
  Cellular variability of HL-60 (%): 26%
HL‐60 cells; [7]
  MCP-1: 486 pg/mL
HL‐60 cells; [8]
  MCP-1: 414 pg/mL
HL‐60 cells; [9]
  MCP-1: 465 pg/mL
HL‐60 cells; [10]
  MCP-1: 538 pg/mL
HL‐60 cells; [11]
  MCP-1: 514 pg/mL
HL‐60 cells; [12]
  MCP-1: 517 pg/mL
HL‐60 cells; [13]
  MCP-1: 545 pg/mL
HL‐60 cells; [14]
  MCP-1: 571 pg/mL
HL‐60 cells; [15]
  MCP-1: 524 pg/mL
HL‐60 cells; [16]
  MCP-1: 431 pg/mL
HL‐60 cells; [17]
  MCP-1: 519 pg/mL
HL‐60 cells; [18]
  MCP-1: 410 pg/mL
HL‐60 cells; [19]
  MCP-1: 583 pg/mL
HL‐60 cells; [20]
  MCP-1: 543 pg/mL
HL‐60 cells; [21]
  MCP-1: 562 pg/mL
HL‐60 cells; [22]
  MCP-1: 459 pg/mL
HL‐60 cells; [23]
  MCP-1: 565 pg/mL
HL‐60 cells; [24]
  MCP-1: 438 pg/mL
A549 cells; [7]
  IL-8: 172 pg/mL
A549 cells; [8]
  IL-8: 166 pg/mL
A549 cells; [9]
  IL-8: 172 pg/mL
A549 cells; [10]
  IL-8: 156 pg/mL
A549 cells; [11]
  IL-8: 129 pg/mL
A549 cells; [12]
  IL-8: 155 pg/mL
A549 cells; [13]
  IL-8: 173 pg/mL
A549 cells; [14]
  IL-8: 195 pg/mL
A549 cells; [15]
  IL-8: 192 pg/mL
A549 cells; [16]
  IL-8: 57 pg/mL
A549 cells; [17]
  IL-8: 41 pg/mL
A549 cells; [18]
  IL-8: 47 pg/mL
A549 cells; [19]
  IL-8: 66 pg/mL
A549 cells; [20]
  IL-8: 57 pg/mL
A549 cells; [21]
  IL-8: 78 pg/mL
A549 cells; [22]
  IL-8: 133 pg/mL
A549 cells; [23]
  IL-8: 122 pg/mL
A549 cells; [24]
  IL-8: 116 pg/mL

## drosomycin: a specific antifungal defensin (DCLSGRYKGPCAVWDNETCRRVCKEEGRSSGHCSPSLKCWCEGC; UniProt P41964 27-70, looked up)
[2]
  Non-covalent complex with UMP by ESI-MS: not

## penicillin [reference compound]
SP D39; 8.35 mg/kg i.m. 24 h after intranasal SP D39, lungs at 48 h post‐infection, animal 1
  Log10 (CFU per lung): 3.6 Log10 (CFU per lung)
SP D39; 8.35 mg/kg i.m., animal 2
  Log10 (CFU per lung): 4.3 Log10 (CFU per lung)
SP D39; 8.35 mg/kg i.m., animal 3
  Log10 (CFU per lung): 3.23 Log10 (CFU per lung)
SP D39; 8.35 mg/kg i.m., animal 4
  Log10 (CFU per lung): 3.28 Log10 (CFU per lung)
SP D39; 8.35 mg/kg i.m., animal 5
  Log10 (CFU per lung): 3.3 Log10 (CFU per lung)
SP D39; 16.7 mg/kg i.m., animal 1
  Log10 (CFU per lung): 1.3 Log10 (CFU per lung)
SP D39; 16.7 mg/kg i.m., animal 2
  Log10 (CFU per lung): 1.48 Log10 (CFU per lung)
SP D39; 16.7 mg/kg i.m., animal 3
  Log10 (CFU per lung): 1.3 Log10 (CFU per lung)
SP D39; 16.7 mg/kg i.m., animal 4
  Log10 (CFU per lung): 4.2 Log10 (CFU per lung)
SP D39; 16.7 mg/kg i.m., animal 5
  Log10 (CFU per lung): 4.68 Log10 (CFU per lung)
SP D39; 30 mg/kg i.m., animal 1
  Log10 (CFU per lung): 3 Log10 (CFU per lung)
SP D39; 30 mg/kg i.m., animal 2
  Log10 (CFU per lung): 1 Log10 (CFU per lung)
SP D39; 30 mg/kg i.m., animal 3
  Log10 (CFU per lung): 2.63 Log10 (CFU per lung)
SP D39; 30 mg/kg i.m., animal 4
  Log10 (CFU per lung): 1 Log10 (CFU per lung)
SP D39; 30 mg/kg i.m., animal 5
  Log10 (CFU per lung): 1 Log10 (CFU per lung)

B1: hLZc: lysozyme C isolated from human saliva (protein)
chain: KVFERCELARTLKRLGMDGYRGISLANWMCLAKWESGYNTRATNYNAGDRSTDYGIFQINSRYWCNDGKTPGAVNACHLSCSALLQDNIADAVACAKRVVRDPQGIRAWVAWRNRCQNRDVRQYVQGCGV
[5]
  Inhibition zone of the factor alone: no visible inhibition zones
[6]
  Inhibition zone of the factor alone: no visible inhibition zones
